{
  "source": "patent US9389235B2",
  "about": "“Methods of using biomarkers for predicting the outcome of an immunotherapy against cancer” (priority 2010, dated 2016)",
  "test_system": "metastatic RCC patients",
  "format": "in vivo, human",
  "details": "for HR, overall survival, +CY vs −CY arm / HR (95% CI), overall survival, +CY vs −CY arm: IMA901-treated patients",
  "protocol": "The IMA901-202 (phase II) study used univariate and multivariate analyses to identify parameters which alone or in combination serve as predictive biomarkers for the success in terms of immune response induction and prolongation of overall survival of IMA901 treatment of metastatic RCC patients.\nTo achieve this, around 450 parameters (patient- or tumor-related parameters as well as analytes measured in serum or urine and cellular parameters) were analyzed using pre-treatment samples of the IMA901-202 (phase II) study population. For multivariate analyses, which selected a set of several parameters, those parameters that required preparation of peripheral blood mononuclear cells (PBMCs) were not included in order to limit measurement costs in future trials. Parameters were analyzed for their association with overall survival and T-cell responses.\nThereby, the selection of purely prognostic markers, which by definition would show association with overall survival in both arms, was avoided.\nAll samples were collected before any therapeutic study intervention, either three days before vaccination and immediately before administration of cyclophosphamide in the +CY arm, or immediately before vaccination. Serum samples were taken using a serum/gel-[…] (Becton Dickinson, 5 ml), inverted and incubated for a minimum of 30 minutes. Tubes were centrifuged for 15 minutes at least 1200×g, and serum (approximately 2 ml) was transferred into a NUNC cryotube (3.6 ml). Cryotubes were stored immediately at <−20° C. until measurement. […] Urine was collected shortly before vaccination. For dipstick examination, only fresh urine was used. Citrated plasma for analysis of coagulation was collected approximately two weeks before vaccination. Samples were taken using a citrate-[…] and centrifuged within 30 minutes at least 1200×g at ambient temperature. Supernatant plasma was transferred into microtubes.\nBiomarker measurement methods included ELISA, multiplex immunoassays, epigenetic assays, mass spectrometry, FACS analyses, routine clinical methods of haematology, clinical chemistry and urine analysis, and other methods.\nThe interaction of parameters with CY-pre-treatment was assessed using the Cox proportional hazards model. Candidates showing an interaction p value of <0.05 at any cutoff value that was not at the extreme ends of the distribution (i.e. selecting or de-selecting >˜5% of patients) were considered as interesting.\nMoreover, to exclude parameters with significant interaction due to inverse association of cyclophosphamide pre-treatment with overall survival in the unfavorable biomarker group, an additional criterion was significant association (p<0.05) with overall survival in the positive biomarker group. A significant (p<0.05) association with overall survival in the +CY group, but not in the −CY group was considered to be an additional hint for the predictive instead of prognostic quality of a parameter.\nMultivariate biomarkers were determined according to a Cox proportional hazard model, whose properties and extensions are described in the following.",
  "note": "Like-named read-outs stand apart in the source and are kept apart here.",
  "data": [
    {"smiles": "O=P1(N(CCCl)CCCl)NCCCO1", "note": "(stereo not shown) [cyclophosphamide]", "values": [
      {"measurement": "patients still alive at the end of the study", "setting": "CCL17/TARC-positive cyclophosphamide-pre-treated patients, IMA901 treatment (FIG. 1D)", "result": 75, "unit": "%"},
      {"measurement": "HR, interaction of biomarker with cyclophosphamide pre-treatment (overall survival)", "setting": "biomarker ApoA1, cutoff 0.264 mg/ml", "result": 0.43},
      {"measurement": "HR, interaction of biomarker with cyclophosphamide pre-treatment (overall survival)", "setting": "biomarker CCL17/TARC, cutoff 161.99 pg/ml", "result": 0.26},
      {"measurement": "HR, interaction of biomarker with cyclophosphamide pre-treatment (overall survival)", "setting": "biomarker CXCL13/BCA-1, cutoff 64.21 pg/ml", "result": 0.3271},
      {"measurement": "HR, interaction of biomarker with cyclophosphamide pre-treatment (overall survival)", "setting": "biomarker monocytes, cutoff 7.7%", "result": 0.22},
      {"measurement": "HR, overall survival, +CY vs −CY arm", "setting": "biomarker-negative group, ApoA1, cutoff 0.264 mg/ml", "result": 0.84},
      {"measurement": "HR, overall survival, +CY vs −CY arm", "setting": "biomarker-negative group, CCL17/TARC, cutoff 161.99 pg/ml", "result": 0.85},
      {"measurement": "HR, overall survival, +CY vs −CY arm", "setting": "biomarker-negative group, CXCL13/BCA-1, cutoff 64.21 pg/ml", "result": 1.07},
      {"measurement": "HR, overall survival, +CY vs −CY arm", "setting": "biomarker-negative group, monocytes, cutoff 7.7%", "result": 1.31},
      {"measurement": "HR (95% CI), overall survival, +CY vs −CY arm", "setting": "biomarker-negative group, multivariate biomarker, cutoff 0.019076043 points", "result": "2.5 (0.95-6.58);"},
      {"measurement": "HR, overall survival, +CY vs −CY arm", "setting": "biomarker-positive group, ApoA1, cutoff 0.264 mg/ml", "result": 0.36},
      {"measurement": "HR, overall survival, +CY vs −CY arm", "setting": "biomarker-positive group, CCL17/TARC, cutoff 161.99 pg/ml", "result": 0.22},
      {"measurement": "HR, overall survival, +CY vs −CY arm", "setting": "biomarker-positive group, CXCL13/BCA-1, cutoff 64.21 pg/ml", "result": 0.35},
      {"measurement": "HR, overall survival, +CY vs −CY arm", "setting": "biomarker-positive group, monocytes, cutoff 7.7%", "result": 0.29},
      {"measurement": "HR (95% CI), overall survival, +CY vs −CY arm", "setting": "biomarker-positive group, multivariate biomarker, cutoff 0.019076043 points", "result": "0.08 (0.02-0.38);"},
      {"measurement": "HR (95% CI), interaction of multivariate biomarker with cyclophosphamide pre-treatment (overall survival)", "setting": "multivariate biomarker, cutoff 0.019076043 points", "result": "0.032 (0.0055-0.1863);"}
    ]}
  ]
}
